Earlier results on 1 substance are cited in patent publication US20110207819A1, “Fat Emulsion for Artificially Feeding Seriously Ill Intensive Care Patients” (B. BRAUN MELSUNGEN AG, priority 2008, published 2011).

The data set deals with CIP/CIM. The following applies: intensified insulin therapy; intensive care patients.

Regarding insulin, the “decrease of the incidence of CIP/CIM” value is on record as 44%.
